Data on 14 molecules can be found in ChEMBL document CHEMBL5032491, “New Dibenzoquinoxalines Inhibit Triple-Negative Breast Cancer Growth by Dual Targeting of Topoisomerase 1 and the c-MYC G-Quadruplex” (J Med Chem, 2021).

pIC50: −log10 of the molar value. The source made the active and inactive calls. The rule behind the calls is not given here.

Series [1] relates to MDA-MB-231. Briefly: Antiproliferative activity against human MDA-MB-231 cells assessed as inhibition in cell growth at 20 uM incubated for 24 hrs by CCK8 assay. The class given is functional, cell-based. For orientation: Tetrazolium dyes change colour on reduction, which living cells bring about.
Series [2] concerns MDA-MB-231. Nature of the series: Antitumor activity against human MDA-MB-231 cells xenografted in BALB/c mouse assessed as tumor growth inhibition measured at 2.5 mg/kg, ip administered every other day for 20 days. The class given is functional. The conditions noted are these: time 20.0 day. A general note: In xenograft studies the graft and the host belong to different species.

Series [3] is described as follows: Toxicity in human MDA-MB-231 cells xenografted BALB/c mouse assessed as body weight loss at 2.5 mg/kg, ip administered every other day for 20 days. Format: organism-based. The settings on record: in vivo, 480 h, time 20 day.
Another series deals with Quadruplex DNA. Nature of the series: Inhibition of c-myc G4-quadruplex DNA transcriptional activity in human MDA-MB-231 cells incubated for 24 hrs by RT-PCR analysis. Format: cell-based.
Series [4] has as its system MDA-MB-231. Briefly: Antiproliferative activity against human MDA-MB-231 cells assessed as inhibition of cell growth incubated for 24 hrs by CCK8 assay. The settings on record: MDA-MB-231, 24 h. The class given is functional, cell-based.
Series [5] addresses T1, DNA topoisomerase 1 (Homo sapiens) (UniProt P11387).
T1 sequence (whole entry): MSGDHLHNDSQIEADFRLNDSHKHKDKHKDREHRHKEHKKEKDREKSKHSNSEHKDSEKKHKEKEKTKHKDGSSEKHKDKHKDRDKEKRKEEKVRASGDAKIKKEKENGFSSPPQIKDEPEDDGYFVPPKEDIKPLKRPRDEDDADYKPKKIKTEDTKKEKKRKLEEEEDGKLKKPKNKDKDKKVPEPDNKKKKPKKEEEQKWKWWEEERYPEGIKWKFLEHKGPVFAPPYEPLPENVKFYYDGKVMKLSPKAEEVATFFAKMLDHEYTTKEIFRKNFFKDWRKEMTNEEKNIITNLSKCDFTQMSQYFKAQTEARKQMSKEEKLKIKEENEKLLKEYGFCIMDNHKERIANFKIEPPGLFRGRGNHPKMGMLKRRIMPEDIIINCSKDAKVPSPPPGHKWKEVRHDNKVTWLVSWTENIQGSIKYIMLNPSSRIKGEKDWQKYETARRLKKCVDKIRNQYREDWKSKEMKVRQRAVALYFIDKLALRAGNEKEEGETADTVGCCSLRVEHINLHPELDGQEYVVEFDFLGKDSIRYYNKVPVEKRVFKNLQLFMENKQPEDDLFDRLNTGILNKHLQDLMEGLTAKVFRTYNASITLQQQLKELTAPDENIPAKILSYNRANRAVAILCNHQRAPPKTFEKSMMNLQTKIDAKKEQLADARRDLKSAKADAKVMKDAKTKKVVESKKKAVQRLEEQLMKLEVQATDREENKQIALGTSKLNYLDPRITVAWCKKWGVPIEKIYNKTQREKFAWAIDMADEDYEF
Nature of the series: Inhibition of human topoisomerase 1 mediated relaxation of supercoiled pHOT1 DNA at 5 to 20 uM incubated for 30 mins by agarose gel electrophoresis. The conditions noted are these: dose 5-20 µM.

In series [6] the target is T1, DNA topoisomerase 1 (Homo sapiens). Nature of the series: Inhibition of human topoisomerase 1 assessed as DNA intercalation at 1.2 uM using relaxed pHOT-1 DNA as substrate preincubated with DNA for 10 mins followed by enzyme addition and measured after 30 mins by agarose gel electrophoresis. The settings on record: time 40.0 min.

On to `COc1cccc2c1C(=O)c1c(O)c3c(c(O)c1C2=O)C[C@@](O)(C(=O)CO)C[C@@H]3O[C@H]1C[C@H](N)[C@H](O)[C@H](C)O1` [DOXORUBICIN], for which, in the series with MDA-MB-231 [1], the result was Active. Also, the Activity result in the series on MDA-MB-231 [2] was “Dose-Dependent Effect”; in series [3], “Toxic”.
For orientation: pIC50 means −log10 of the IC50, conventionally taken in molar units. Take `CN1CCN(c2ccc3c(c2)c2cc(N4CCN(C)CC4)ccc2c2nc4cc5c(cc4nc32)N(C)CCN5C)CC1`: the inhibition result in the series on Quadruplex DNA is “inactive”. In the series with MDA-MB-231 [4], the negative-log IC50 (pIC50) was 5.51.
As to `CN1CCN(c2ccc3c(c2)c2cc(N4CCN(C)CC4)ccc2c2nc4cc(C(F)(F)F)ccc4nc32)CC1`, the inhibition entry (in series [5]; in the series with Quadruplex DNA) was “inactive” each time. Besides, the pIC50 in the series with MDA-MB-231 [4] is 5.25.
For `CN1CCN(c2ccc3c(c2)c2cc(N4CCN(C)CC4)ccc2c2nc4cc(F)c(F)cc4nc32)CC1`, the inhibition result in series [5] is “Active”. Also, the pIC50 in the series on MDA-MB-231 [4] is 5.68.
As to `CN1CCN(c2ccc3c(c2)c2cc(N4CCN(C)CC4)ccc2c2nc4cnccc4nc32)CC1`, the inhibition result in series [5] was “Active”. In the series on Quadruplex DNA, the inhibition entry was “inactive”. In addition, the pIC50 with MDA-MB-231 [4] was 4.76.
Taken in the same sequence, the figures for `CN1CCN(c2ccc3c(c2)c2cc(N4CCN(C)CC4)ccc2c2nc4cc(Oc5ccccc5)ccc4nc32)CC1` were “inactive”, “inactive” and 5.66.
Taken in the same sequence, the figures for `CC1CCN(c2cc3nc4c5ccc(N6CCN(C)CC6)cc5c5cc(N6CCN(C)CC6)ccc5c4nc3cc2F)CC1` were “inactive”, “inactive” and 5.01.
Turning to `CN1CCN(c2ccc(-c3nc4cc(F)c(F)cc4nc3-c3ccc(N4CCN(C)CC4)cc3)cc2)CC1`, the inhibition result in series [5] was “inactive”. The inhibition entry in the series with Quadruplex DNA was “Active”. For the same molecule, in the series on MDA-MB-231 [4], the pIC50 was 5.72.
As for `CN1CCN(c2ccc3c(c2)c2cc(N4CCN(C)CC4)ccc2c2nc4cc5ccccc5cc4nc32)CC1`, the pIC50 in the series on MDA-MB-231 [4] is 5.27.
Take `COc1cc2nc3c4ccc(N5CCN(C)CC5)cc4c4cc(N5CCN(C)CC5)ccc4c3nc2cc1OC`: the inhibition result (in series [5]; in the series with Quadruplex DNA) was “inactive” throughout. In addition, in the series on MDA-MB-231 [4], the pIC50 was 4.77.
Regarding `CC[n+]1c(-c2ccccc2)c2cc(N)ccc2c2ccc(N)cc21`, the inhibition entry in series [6] is “Active”.
As to `CN1CCN(c2ccc3c(c2)c2cc(N4CCN(C)CC4)ccc2c2nc4ccccc4nc32)CC1`, the inhibition entry (in series [5]; in the series with Quadruplex DNA) was “Active” throughout. Moreover, the pIC50 in the series with MDA-MB-231 [4] was 5.96.
In the case of `Cc1cc2nc3c4ccc(N5CCN(C)CC5)cc4c4cc(N5CCN(C)CC5)ccc4c3nc2cc1C`, the inhibition result (in series [5]; with Quadruplex DNA) was “Active” each time. Further, the pIC50 in the series with MDA-MB-231 [4] was 5.57.
Regarding `CN1CCN(c2ccc3c(c2)c2cc(N4CCN(C)CC4)ccc2c2nc4cc(F)ccc4nc32)CC1`, the inhibition entry (in series [5]; in the series with Quadruplex DNA) was “Active” in each case. Moreover, the pIC50 with MDA-MB-231 [4] is 5.96.
